Test results as given in ChEMBL document CHEMBL4190211, “Biosynthesis of Fluorinated Peptaibols Using a Site-Directed Building Block Incorporation Approach” (J Nat Prod, 2017).
Square brackets hold non-standard residues; d marks the D form. Peptide text beside a SMILES is read from it. * marks the point of attachment. Phe(ol) = N[C@H](CO)Cc1ccccc1; X1 = OC[C@H](Cc1cccc(F)c1)N*; X2 = OC[C@H](Cc1ccccc1F)N*; Aib = CC(C)(N)C(=O)O

Assays:
[1] = system: OVCAR-3; assay: Cytotoxicity against human OVCAR3 cells assessed as decrease in cell viability after 72 hrs by CellTiter 96 AQueous one solution cell proliferation assay; assay type: functional, cell-based; conditions: OVCAR-3, 72 h
[2] = system: MDA-MB-435; assay: Cytotoxicity against human MDA-MB-435 cells assessed as decrease in cell viability after 72 hrs by CellTiter 96 AQueous one solution cell proliferation assay; assay type: functional, cell-based; conditions: MDA-MB-435, 72 h
[3] = system: MDA-MB-231; assay: Cytotoxicity against human MDA-MB-231 cells assessed as decrease in cell viability after 72 hrs by CellTiter 96 AQueous one solution cell proliferation assay; conditions: MDA-MB-231, 72 h

Question: For CC(=O)NC(C)(C)C(=O)N[C@@H](C)C(=O)NC(C)(C)C(=O)N[C@@H](C)C(=O)NC(C)(C)C(=O)N[C@@H](C)C(=O)N[C@@H](CCC(N)=O)C(=O)NC(C)(C)C(=O)N[C@H](C(=O)NC(C)(C)C(=O)NCC(=O)N[C@@H](CC(C)C)C(=O)NC(C)(C)C(=O)N1CCC[C@H]1C(=O)N[C@H](C(=O)NC(C)(C)C(=O)NC(C)(C)C(=O)N[C@@H](CCC(N)=O)C(=O)N[C@@H](CCC(N)=O)C(=O)N[C@H](CO)Cc1cccc(F)c1)C(C)C)C(C)C (Ac-[Aib]A[Aib]A[Aib]AQ[Aib]V[Aib]GL[Aib]PV[Aib][Aib]QQ-X1), which IC50 [1] is on record?
Answer: 4.4 µM

Question: For CC(=O)NC(C)(C)C(=O)N[C@@H](C)C(=O)NC(C)(C)C(=O)N[C@@H](C)C(=O)NC(C)(C)C(=O)N[C@@H](C)C(=O)N[C@@H](CCC(N)=O)C(=O)NC(C)(C)C(=O)N[C@H](C(=O)NC(C)(C)C(=O)NCC(=O)N[C@@H](CC(C)C)C(=O)NC(C)(C)C(=O)N1CCC[C@H]1C(=O)N[C@H](C(=O)NC(C)(C)C(=O)NC(C)(C)C(=O)N[C@@H](CCC(N)=O)C(=O)N[C@@H](CCC(N)=O)C(=O)N[C@H](CO)Cc1ccccc1F)C(C)C)C(C)C (Ac-[Aib]A[Aib]A[Aib]AQ[Aib]V[Aib]GL[Aib]PV[Aib][Aib]QQ-X2), which IC50 [1] is on record?
Answer: 5 µM

Question: Which IC50 [2] does the source give for CC(=O)NC(C)(C)C(=O)N[C@@H](C)C(=O)NC(C)(C)C(=O)N[C@@H](C)C(=O)NC(C)(C)C(=O)N[C@@H](C)C(=O)N[C@@H](CCC(N)=O)C(=O)NC(C)(C)C(=O)N[C@H](C(=O)NC(C)(C)C(=O)NCC(=O)N[C@@H](CC(C)C)C(=O)NC(C)(C)C(=O)N1CCC[C@H]1C(=O)N[C@H](C(=O)NC(C)(C)C(=O)NC(C)(C)C(=O)N[C@@H](CCC(N)=O)C(=O)N[C@@H](CCC(N)=O)C(=O)N[C@H](CO)Cc1ccccc1)C(C)C)C(C)C (Ac-[Aib]A[Aib]A[Aib]AQ[Aib]V[Aib]GL[Aib]PV[Aib][Aib]QQ[Phe(ol)]) here?
Answer: 4.8 µM

Question: What about the IC50 [3] of the same molecule?
Answer: 5.1 µM

Question: And the IC50 [1]?
Answer: 5.1 µM

Question: CC(=O)O[C@H]1C(=O)[C@@]2(C)[C@H]([C@H](OC(=O)c3ccccc3)[C@]3(O)C[C@H](OC(=O)[C@H](O)[C@@H](NC(=O)c4ccccc4)c4ccccc4)C(C)=C1C3(C)C)[C@]1(OC(C)=O)CO[C@@H]1C[C@@H]2O [PACLITAXEL] was tested. Which IC50 [1] did it give?
Answer: 0.002 µM
